{
  "source": "patent US11234982B2",
  "about": "“Methods for treating ocular surface pain” (NOVARTIS AG, priority 2019, dated 2022)",
  "tested_on": "patients undergoing photorefractive keratectomy (PRK) surgery",
  "experiment": "PRK study: oral rescue medication (ORM) use",
  "assay_type": "in vivo, human",
  "details": "for Number of patients who did not use oral rescue medication: 2.5%; for Number of patients who did not use oral rescue medication / Amount of oral rescue medication (Number of pills), Mean (SD) / Amount of oral rescue medication (Number of pills), Range / Amount of oral rescue medication (mg/kg of body weight), Range / Amount of oral rescue medication (mg/kg of body weight), Mean (SD): N = 40; for Amount of oral rescue medication (mg/kg of body weight), Mean (SD): tablet counted as 330 mg",
  "method": "The study was a proof of concept, double-masked, randomized, vehicle-controlled study of compound I administered as eye drops in addition to standard of care treatment in patients after PRK surgery. PRK surgery was performed as an outpatient procedure under topical anesthesia with removal of the corneal epithelium to expose the stroma for the laser ablation. Compound I dosing was as single eye drop of 2.5% (25 mg/ml, 0.925 mg/drop), administered four times daily (every six hours) in one eye from immediate post-op (time 0) to last dose at 72 hours.\nRescue medication consisted of oral analgesic (acetaminophen 300 mg+codeine 30 mg) as needed up to a total of 10 tabs/day or 1-2 tabs every 4 hours.\nRescue oral analgesics: It is not ethical to refuse pain control medication to patients postoperatively as part of a clinical trial. […] Because the use of oral rescue medication may be a potential confounder of the pain VAS evaluation, three approaches were used when analyzing pain VAS scores to account for the influence of pain meds (assuming 4 hours of rescue medication effect): (1) any recorded VAS score within 4 hours after use of rescue medication was considered missing; (2) all the recorded VAS scores was used; and (3) any recorded VAS scores within 4 hours after rescue medication use was imputed by the record taken prior to the rescue medication.",
  "data": [
    {"smiles": "CC(C)c1nc2cc(O)ccc2c(=O)n1-c1ccc(C#N)cc1", "note": "[Compound I, 4-(7-hydroxy-2-isopropyl-4-oxo-4H-quinazolin-3-yl)-benzonitrile]", "values": [
      {"measurement": "Amount of ORM (Number of pills), % Change (Compound I-Vehicle)/Vehicle", "setting": "0-6 hours post-operatively", "result": "−25", "unit": "%"},
      {"measurement": "Amount of ORM (mg/kg of body weight), % Change (Compound I-Vehicle)/Vehicle", "setting": "0-6 hours post-operatively", "result": "−25", "unit": "%"},
      {"measurement": "Number of patients who did not use oral rescue medication", "setting": "0-6 hours post-operatively", "result": "23 (57.5%) n (%)"},
      {"measurement": "Amount of oral rescue medication (Number of pills), Mean (SD)", "setting": "0-6 hours post-operatively", "result": "0.75 (1.032) Number of pills"},
      {"measurement": "Amount of oral rescue medication (Number of pills), Range", "setting": "0-6 hours post-operatively", "result": "0.0-4.0 Number of pills"},
      {"measurement": "Amount of oral rescue medication (mg/kg of body weight), Range", "setting": "0-6 hours post-operatively", "result": "0.0-19.2 mg/kg of body weight"},
      {"measurement": "Amount of oral rescue medication (mg/kg of body weight), Mean (SD)", "setting": "0-6 hours post-operatively", "result": "3.32 (4.684) mg/kg of body weight"},
      {"measurement": "Number of patients who did not use ORM, compound I-treated eye compared to Vehicle-treated eye", "setting": "0-6 hours, 0-12 hours and 0-24 hours post-operatively", "result": "higher"},
      {"measurement": "Amount of ORM (Number of pills), % Change (Compound I-Vehicle)/Vehicle", "setting": "0-12 hours post-operatively", "result": "−15", "unit": "%"},
      {"measurement": "Amount of ORM (mg/kg of body weight), % Change (Compound I-Vehicle)/Vehicle", "setting": "0-12 hours post-operatively", "result": "−17", "unit": "%"},
      {"measurement": "Number of patients who did not use oral rescue medication", "setting": "0-12 hours post-operatively", "result": "19 (47.5%) n (%)"},
      {"measurement": "Amount of oral rescue medication (Number of pills), Mean (SD)", "setting": "0-12 hours post-operatively", "result": "1.40 (1.780) Number of pills"},
      {"measurement": "Amount of oral rescue medication (Number of pills), Range", "setting": "0-12 hours post-operatively", "result": "0.0-6.0 Number of pills"},
      {"measurement": "Amount of oral rescue medication (mg/kg of body weight), Range", "setting": "0-12 hours post-operatively", "result": "0.0-28.7 mg/kg of body weight"},
      {"measurement": "Amount of oral rescue medication (mg/kg of body weight), Mean (SD)", "setting": "0-12 hours post-operatively", "result": "6.10 (8.062) mg/kg of body weight"},
      {"measurement": "Amount of ORM (Number of pills), % Change (Compound I-Vehicle)/Vehicle", "setting": "0-24 hours post-operatively", "result": "−16", "unit": "%"},
      {"measurement": "Amount of ORM (mg/kg of body weight), % Change (Compound I-Vehicle)/Vehicle", "setting": "0-24 hours post-operatively", "result": "−18", "unit": "%"},
      {"measurement": "Number of patients who did not use oral rescue medication", "setting": "0-24 hours post-operatively", "result": "16 (40.0%) n (%)"},
      {"measurement": "Amount of oral rescue medication (Number of pills), Mean (SD)", "setting": "0-24 hours post-operatively", "result": "2.35 (2.751) Number of pills"},
      {"measurement": "Amount of oral rescue medication (Number of pills), Range", "setting": "0-24 hours post-operatively", "result": "0.0-10.0 Number of pills"},
      {"measurement": "Amount of oral rescue medication (mg/kg of body weight), Range", "setting": "0-24 hours post-operatively", "result": "0.0-47.9 mg/kg of body weight"},
      {"measurement": "Amount of oral rescue medication (mg/kg of body weight), Mean (SD)", "setting": "0-24 hours post-operatively", "result": "10.17 (12.335) mg/kg of body weight"},
      {"measurement": "Number of patients who did not use oral rescue medication", "setting": "0-2 days post-operatively", "result": "11 (27.5%) n (%)"},
      {"measurement": "Amount of ORM (Number of pills), % Change (Compound I-Vehicle)/Vehicle", "setting": "0-48 hours post-operatively", "result": "−13", "unit": "%"},
      {"measurement": "Amount of ORM (mg/kg of body weight), % Change (Compound I-Vehicle)/Vehicle", "setting": "0-48 hours post-operatively", "result": "−14", "unit": "%"},
      {"measurement": "Amount of oral rescue medication (Number of pills), Mean (SD)", "setting": "0-48 hours post-operatively", "result": "4.05 (4.466) Number of pills"},
      {"measurement": "Amount of oral rescue medication (Number of pills), Range", "setting": "0-48 hours post-operatively", "result": "0.0-16.0 Number of pills"},
      {"measurement": "Amount of oral rescue medication (mg/kg of body weight), Range", "setting": "0-48 hours post-operatively", "result": "0.0-76.6 mg/kg of body weight"},
      {"measurement": "Amount of oral rescue medication (mg/kg of body weight), Mean (SD)", "setting": "0-48 hours post-operatively", "result": "17.59 (19.850) mg/kg of body weight"},
      {"measurement": "Number of patients who did not use oral rescue medication", "setting": "0-3 days post-operatively", "result": "11 (27.5%) n (%)"},
      {"measurement": "Amount of ORM (Number of pills), % Change (Compound I-Vehicle)/Vehicle", "setting": "0-72 hours post-operatively", "result": "−14", "unit": "%"},
      {"measurement": "Amount of ORM (mg/kg of body weight), % Change (Compound I-Vehicle)/Vehicle", "setting": "0-72 hours post-operatively", "result": "−15", "unit": "%"},
      {"measurement": "Amount of oral rescue medication (Number of pills), Mean (SD)", "setting": "0-72 hours post-operatively", "result": "4.33 (4.896) Number of pills"},
      {"measurement": "Amount of oral rescue medication (Number of pills), Range", "setting": "0-72 hours post-operatively", "result": "0.0-21.0 Number of pills"},
      {"measurement": "Amount of oral rescue medication (mg/kg of body weight), Range", "setting": "0-72 hours post-operatively", "result": "0.0-87.4 mg/kg of body weight"},
      {"measurement": "Amount of oral rescue medication (mg/kg of body weight), Mean (SD)", "setting": "0-72 hours post-operatively", "result": "18.70 (21.509) mg/kg of body weight"},
      {"measurement": "Amount of ORM (mg/kg of body weight) during compound I vs. Vehicle treatment", "setting": "every time interval", "result": "less"},
      {"measurement": "ORM taken during compound I vs. Vehicle treatment (number of pills)", "setting": "every time interval during the study", "result": "less ORM taken"}
    ]}
  ]
}
